Reference: the supplement of paper PMC10331698
± gives the standard deviation of the averaged measurements.

Key:
Assay in all cases: level (log10 ratio to DMSO vehicle control); higher = higher biomarker level / cell amount than vehicle control
[1] = compound: C=CC(=O)OCCC(F)(F)C(F)(F)C(F)(F)C(F)(F)C(F)(F)C(F)(F)C(F)(F)C(F)(F)F [8:2 Fluorotelomer acrylate]; details: in DMSO
Experimental: (§1)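 BioMAP Diversity Plus panel of 12 human primary cell co-culture systems (3C, 4H, LPS, SAg, BT, BF4T, BE3C, CASM3C, HDF3CGF, KF3CT, MyoF, Mphg). Compounds were added 1 h before stimulation and left for 24 h (MyoF 48 h; BT 72 h for soluble read-outs or 6 d for IgG). Biomarkers were read by ELISA, cytotoxicity by SRB, PBMC viability and proliferation by Alamar Blue. Each well value was divided by the mean of 8 DMSO control wells on the same plate and log10 transformed; duplicate blinded samples were tested at 4 concentrations.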

Perfluoropinacol = compound: OC(C(F)(F)F)(C(F)(F)F)C(O)(C(F)(F)F)C(F)(F)F [Perfluoropinacol]; details: in DMSO
Experimental: as §1

[2] = compound: O=P(O)(O)CCC(F)(F)C(F)(F)C(F)(F)C(F)(F)C(F)(F)C(F)(F)F [2-(Perfluorohexyl)ethylphosphonic acid]; details: in DMSO
Experimental: as §1

[3] = compound: C=CC(=O)OCC(F)(F)C(F)(F)C(F)(F)C(F)(F)C(F)(F)C(F)(F)C(F)(F)C(F)F [1H,1H,9H-Perfluorononyl acrylate]; details: in DMSO
Experimental: as §1

[4] = compound: O=C(CC(=O)C(F)(F)C(F)(F)C(F)(F)F)c1cccs1 [(Perfluorobutyryl)-2-thenoylmethane]; details: in DMSO
Experimental: as §1

[5] = compound: C=CC(=O)OCC(F)(F)C(F)(F)C(F)(F)C(F)(F)COC(=O)C=C [1H,1H,6H,6H-Perfluorohexane-1,6-diol diacrylate]; details: 6700 nM; in DMSO
Experimental: as §1

[6] = compound: FC(F)(I)C(F)(F)C(F)(F)C(F)(F)C(F)(F)C(F)(F)I [1,6-Diiodoperfluorohexane]; details: 6700 nM; in DMSO
Experimental: as §1

[7] = compound: O=C(O)C(F)(F)C(F)(F)C(F)(F)C(F)(F)C(F)(F)C(F)(F)C(F)(F)F [Ammonium perfluorooctanoate]; details: in DMSO
Experimental: as §1

Test System | level (log10) ([1]; 6700 nM) | level (log10) ([1]; 20000 nM) | level (log10) ([1]; 60000 nM) | level (log10) (Perfluoropinacol; 6700 nM) | level (log10) (Perfluoropinacol; 20000 nM) | level (log10) ([2]; 6700 nM) | level (log10) ([2]; 20000 nM) | level (log10) ([2]; 60000 nM) | level (log10) ([3]; 6700 nM) | level (log10) ([3]; 20000 nM) | level (log10) ([3]; 60000 nM) | level (log10) ([4]; 6700 nM) | level (log10) ([4]; 20000 nM) | level (log10) [5] | level (log10) [6] | level (log10) ([7]; 6700 nM) | level (log10) ([7]; 20000 nM) | level (log10) ([7]; 60000 nM)
CASM3C:CXCL8/IL-8 | -0.0185 ± 0.012 | -0.0165 ± 0.00071 | -0.0085 ± 0.00071 | 0.004 ± 0.011 | 0.029 | -0.0185 ± 0.013 | -0.0015 ± 0.0021 | 0.0145 ± 0.005 | 0.0175 ± 0.021 | 0.025 ± 0.0028 | 0.0415 ± 0.03 | -0.0045 ± 0.0021 | -0.043 ± 0.0057 | -0.015 ± 0.0028 | -0.02 | 0.005 ± 0.0099 | 0.0085 ± 0.013 | 0.049 ± 0.033
lMphg:M-CSF | -0.0195 ± 0.042 | -0.013 ± 0.014 | -0.003 ± 0.016 | -0.0155 ± 0.04 | -0.0825 ± 0.013 | -0.0175 ± 0.016 | -0.0335 ± 0.015 | -0.0075 ± 0.016 | 0.0155 ± 0.04 | -0.0225 ± 0.018 | -0.042 ± 0.025 | -0.0285 ± 0.0021 | -0.072 ± 0.0085 | -0.0105 ± 0.015 | -0.023 | -0.018 ± 0.0099 | -0.018 ± 0.037 | 0.0055 ± 0.0021
BE3C:SRB | -0.0045 ± 0.0021 | -0.0045 ± 0.0064 | 0.006 ± 0.018 | -0.0115 ± 0.0035 | -0.0285 ± 0.00071 | -0.01 ± 0.0042 | -0.001 ± 0.0085 | 0.001 ± 0.02 | -0.004 | 0.0005 ± 0.005 | 0.001 ± 0.016 | -0.02 ± 0.0071 | -0.031 ± 0.0071 | -0.006 ± 0.0028 | -0.005 | -0.0045 ± 0.005 | -0.003 | -0.0145 ± 0.0078
CASM3C:Proliferation | 0.006 ± 0.021 | -0.05 ± 0.013 | -0.045 ± 0.037 | -0.02 ± 0.013 | -0.122 ± 0.035 | -0.0385 ± 0.0064 | -0.05 ± 0.013 | -0.06 ± 0.0085 | 0.03 ± 0.034 | 0.0175 ± 0.057 | -0.03 ± 0.093 | -0.0865 ± 0.013 | -0.245 ± 0.018 | -0.0005 ± 0.037 | -0.119 | 0.0125 ± 0.018 | -0.007 ± 0.045 | -0.021 ± 0.0071
lMphg:SRB-Mphg | -0.026 ± 0.0014 | -0.012 ± 0.021 | 0.003 ± 0.037 | -0.015 ± 0.0099 | -0.05 ± 0.0028 | -0.029 ± 0.023 | -0.0255 ± 0.026 | -0.0125 ± 0.032 | -0.1115 ± 0.00071 | -0.082 ± 0.11 | 0.0085 ± 0.097 | 0.005 ± 0.011 | -0.054 ± 0.0028 | -0.0115 ± 0.084 | -0.023 | -0.0045 ± 0.0092 | 0.006 ± 0.0057 | -0.007 ± 0.02
lMphg:CD106/VCAM-1 | 0 ± 0.013 | -0.015 ± 0.0014 | -0.0045 ± 0.03 | 0.0045 ± 0.0064 | -0.077 ± 0.023 | -0.001 ± 0.0028 | 0.006 ± 0.016 | -0.002 ± 0.038 | -0.03 | -0.029 ± 0.0099 | -0.0405 ± 0.0092 | -0.006 ± 0.0057 | -0.0715 ± 0.036 | -0.0445 ± 0.018 | -0.025 | 0.0135 ± 0.0035 | 0.023 ± 0.0014 | -0.0105 ± 0.0021
MyoF:PAI-I | -0.0055 ± 0.018 | -0.0105 ± 0.015 | -0.0355 ± 0.015 | -0.0215 ± 0.012 | -0.0025 ± 0.00071 | -0.0305 ± 0.0092 | -0.0115 ± 0.0064 | 0.0005 ± 0.013 | -0.0225 ± 0.0078 | -0.0345 ± 0.047 | -0.045 ± 0.0099 | 0.0095 ± 0.0035 | 0.013 ± 0.0085 | 0 ± 0.042 | -0.053 | 0.0095 ± 0.015 | 0.0035 ± 0.013 | 0.027 ± 0.011
lMphg:CD62E/E-Selectin | 0.019 ± 0.038 | 0.0215 ± 0.0064 | 0.041 ± 0.034 | 0.0515 ± 0.013 | -0.139 ± 0.018 | -0.015 ± 0.013 | -0.017 ± 0.0042 | 0.075 ± 0.0085 | 0 ± 0.0099 | -0.004 ± 0.02 | -0.01 ± 0.017 | -0.0485 ± 0.054 | -0.123 ± 0.034 | -0.044 ± 0.021 | 0.033 | -0.0205 ± 0.0021 | -0.003 ± 0.058 | 0.0025 ± 0.022
HDF3CGF:PAI-I | -0.0135 ± 0.013 | -0.0665 ± 0.0021 | -0.071 ± 0.0057 | -0.0325 ± 0.012 | -0.117 ± 0.0021 | -0.027 ± 0.023 | -0.027 ± 0.0014 | -0.0925 ± 0.021 | 0.0785 ± 0.076 | 0.025 ± 0.04 | 0.0165 ± 0.1 | 0.0475 ± 0.052 | -0.0845 ± 0.046 | -0.074 ± 0.016 | -0.662 | 0.0885 ± 0.03 | 0.0995 ± 0.044 | 0.017 ± 0.044
CASM3C:M-CSF | 0.003 ± 0.0057 | 0.0095 ± 0.032 | 0.0185 ± 0.04 | 0.0505 ± 0.0021 | 0.0315 ± 0.0092 | 0.0025 ± 0.005 | 0.0115 ± 0.011 | -0.0055 ± 0.037 | -0.0225 ± 0.06 | 0.001 ± 0.031 | -0.041 ± 0.071 | 0.014 | 0.012 ± 0.04 | -0.105 ± 0.016 | -0.042 | -0.0045 ± 0.0021 | 0.011 ± 0.028 | 0.015 ± 0.05
HDF3CGF:M-CSF | -0.0205 ± 0.011 | -0.0375 ± 0.0021 | -0.0165 ± 0.013 | -0.024 ± 0.055 | -0.239 ± 0.049 | 0.0025 ± 0.0092 | 0.0265 ± 0.0092 | 0.013 ± 0.014 | -0.039 | -0.079 ± 0.041 | -0.254 ± 0.076 | 0.0085 ± 0.013 | -0.001 ± 0.0028 | -0.588 ± 0.054 | -0.454 | 0.002 ± 0.037 | 0.034 ± 0.017 | -0.049 ± 0.042
MyoF:bFGF | -0.015 ± 0.0028 | -0.015 ± 0.014 | -0.0025 ± 0.0092 | -0.0075 ± 0.012 | -0.0225 ± 0.0092 | -0.0415 ± 0.011 | -0.0285 ± 0.00071 | -0.0255 ± 0.021 | 0.012 ± 0.0057 | 0.0155 ± 0.021 | 0.027 ± 0.0014 | 0.002 ± 0.0028 | -0.0175 ± 0.00071 | 0.0155 ± 0.0064 | -0.127 | 0 ± 0.013 | -0.007 ± 0.014 | 0.0015 ± 0.015
KF3CT:CD54/ICAM-1 | 0.003 ± 0.0042 | -0.0155 ± 0.029 | -0.0455 ± 0.019 | 0.012 ± 0.0099 | 0.0185 ± 0.015 | -0.0015 ± 0.011 | 0.006 ± 0.028 | 0.02 ± 0.02 | -0.0185 ± 0.005 | -0.0245 ± 0.0078 | -0.048 ± 0.0085 | -0.0335 ± 0.00071 | -0.0115 ± 0.023 | -0.076 ± 0.0028 | -0.038 | 0.004 ± 0.016 | -0.0165 ± 0.018 | -0.03 ± 0.023
CASM3C:PAI-I | -0.0045 ± 0.0021 | -0.008 ± 0.0099 | 0.005 ± 0.017 | -0.006 ± 0.0071 | -0.0075 ± 0.0064 | -0.0075 ± 0.00071 | -0.0055 ± 0.005 | 0.007 ± 0.013 | 0.007 ± 0.0057 | 0.0045 ± 0.0035 | -0.005 ± 0.028 | -0.0135 ± 0.005 | -0.008 ± 0.0057 | 0.0005 ± 0.0021 | 0.011 | 0.0005 ± 0.00071 | -0.001 ± 0.0028 | 0.0085 ± 0.0078
